From patent US20260138961A1, “MODULATORS OF MITOCHONDRIAL DNA REPLICATION” (Pretzel Therapeutics, Inc., priority 2022, published 2026)

target: T1, POLγA:A467T (Homo sapiens, UniProt P54098, A467T); test: DNA polymerization assay, POLγA:A467T mutant; format: biochemical; details: stimulation of polymerase activity, primed M13mp18 ssDNA, 37° C. 2 hours; read-out: A467T AC50
T1 sequence (P54098 1-1239 A467T): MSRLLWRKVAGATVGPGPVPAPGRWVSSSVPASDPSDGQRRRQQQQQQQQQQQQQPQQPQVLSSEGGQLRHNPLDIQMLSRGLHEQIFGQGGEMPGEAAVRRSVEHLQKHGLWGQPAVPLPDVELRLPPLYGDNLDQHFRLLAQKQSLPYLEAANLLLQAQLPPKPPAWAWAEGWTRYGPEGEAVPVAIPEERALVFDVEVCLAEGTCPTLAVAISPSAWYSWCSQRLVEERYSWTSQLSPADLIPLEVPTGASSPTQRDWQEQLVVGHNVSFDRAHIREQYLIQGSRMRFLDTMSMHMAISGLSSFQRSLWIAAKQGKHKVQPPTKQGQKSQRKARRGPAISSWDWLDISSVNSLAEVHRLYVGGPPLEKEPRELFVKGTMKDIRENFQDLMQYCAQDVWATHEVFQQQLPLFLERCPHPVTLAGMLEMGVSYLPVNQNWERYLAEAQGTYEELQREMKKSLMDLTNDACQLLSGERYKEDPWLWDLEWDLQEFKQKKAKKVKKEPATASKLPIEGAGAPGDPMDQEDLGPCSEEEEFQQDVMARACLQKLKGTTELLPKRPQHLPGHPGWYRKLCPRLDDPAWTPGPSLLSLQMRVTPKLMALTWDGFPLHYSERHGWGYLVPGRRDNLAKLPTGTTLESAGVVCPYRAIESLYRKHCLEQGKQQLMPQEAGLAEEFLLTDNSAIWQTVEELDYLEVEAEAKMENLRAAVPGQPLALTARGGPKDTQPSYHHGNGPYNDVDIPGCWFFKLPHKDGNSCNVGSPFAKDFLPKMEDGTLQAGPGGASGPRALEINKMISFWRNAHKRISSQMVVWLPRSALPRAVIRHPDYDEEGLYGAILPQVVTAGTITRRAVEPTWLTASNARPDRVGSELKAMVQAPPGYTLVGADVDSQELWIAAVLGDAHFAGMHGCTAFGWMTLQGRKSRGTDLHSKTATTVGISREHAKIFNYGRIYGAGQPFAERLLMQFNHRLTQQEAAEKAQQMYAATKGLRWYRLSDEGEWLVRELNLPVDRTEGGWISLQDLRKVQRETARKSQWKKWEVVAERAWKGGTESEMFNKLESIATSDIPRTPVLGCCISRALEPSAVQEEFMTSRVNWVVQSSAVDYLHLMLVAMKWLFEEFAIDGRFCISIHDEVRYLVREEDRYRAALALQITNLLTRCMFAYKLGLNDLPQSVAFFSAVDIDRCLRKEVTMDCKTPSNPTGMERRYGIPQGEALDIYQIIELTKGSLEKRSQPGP
T1 sequence (Q9UHN1 1-485 partner): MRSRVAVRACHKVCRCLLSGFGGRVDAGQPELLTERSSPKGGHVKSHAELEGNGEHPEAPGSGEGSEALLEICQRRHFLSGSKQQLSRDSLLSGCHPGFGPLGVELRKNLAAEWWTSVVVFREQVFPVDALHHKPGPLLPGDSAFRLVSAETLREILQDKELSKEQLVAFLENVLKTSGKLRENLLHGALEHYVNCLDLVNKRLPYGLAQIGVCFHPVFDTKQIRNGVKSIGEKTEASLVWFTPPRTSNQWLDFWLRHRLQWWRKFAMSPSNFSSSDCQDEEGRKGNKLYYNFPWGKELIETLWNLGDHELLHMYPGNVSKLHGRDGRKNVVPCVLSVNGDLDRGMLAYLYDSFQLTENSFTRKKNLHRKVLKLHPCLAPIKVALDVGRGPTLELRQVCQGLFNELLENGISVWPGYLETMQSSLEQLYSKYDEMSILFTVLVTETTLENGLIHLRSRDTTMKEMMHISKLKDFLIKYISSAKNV

SMILES | AC50
Cc1cc(S(=O)(=O)Nc2ccccc2-c2ncco2)c(C)cc1Cl [Example 77, 4-chloro-2,5-dimethyl-N-(2-(oxazol-2-yl)phenyl)benzenesulfonamide] | > 100 µM
Cc1cc(S(=O)(=O)Nc2cccc(C(=O)N3CCCN(C(=O)C(C)C)CC3)c2)c(C)cc1Cl [Example 91, 4-chloro-N-(3-(4-isobutyryl-1,4-diazepane-1-carbonyl)phenyl)-2,5-dimethylbenzenesulfonamide] | > 100 µM
Cc1nc2cccc(NS(=O)(=O)c3cc(C)c(Cl)cc3C)c2s1 [Example 85, 4-chloro-2,5-dimethyl-N-(2-methylbenzo[d]thiazol-7-yl)benzenesulfonamide] | > 100 µM
Cc1cc(S(=O)(=O)Nc2cc(-c3ccccc3)no2)c(C)cc1Cl [Example 84, 4-chloro-2,5-dimethyl-N-(3-phenylisoxazol-5-yl)benzenesulfonamide] | > 100 µM
Cc1csc(-c2ccccc2NS(=O)(=O)c2cc(C)c(Cl)cc2C)n1 [Example 80, 4-chloro-2,5-dimethyl-N-(2-(4-methylthiazol-2-yl)phenyl)benzenesulfonamide] | > 100 µM
Cc1cc(S(=O)(=O)NC2CCOc3c(Cl)cccc32)c(C)cc1Cl (stereo not shown) [Example 82, 4-chloro-N-(8-chlorochroman-4-yl)-2,5-dimethylbenzenesulfonamide] | > 100 µM
Cc1cc(S(=O)(=O)Nc2ccc3ccn(C)c3c2)c(C)cc1Cl [Example 72, 4-chloro-2,5-dimethyl-N-(1-methyl-1H-indol-6-yl)benzenesulfonamide] | 37 µM
Cc1nc2cc(NS(=O)(=O)c3cc(C)c(Cl)cc3C)ccc2o1 [Example 75, 4-chloro-2,5-dimethyl-N-(2-methylbenzo[d]oxazol-5-yl)benzenesulfonamide] | > 100 µM

The next lines start with the values.

AC50 | SMILES
> 100 µM | Cc1cc(S(=O)(=O)Nc2cccc(-c3ncc(C(=O)O)s3)c2)c(C)cc1Cl [Example 90, 2-(3-((4-chloro-2,5-dimethylphenyl)sulfonamido)phenyl) thiazole-5-carboxylic acid]
> 100 µM | Cc1cnc(-c2ccccc2NS(=O)(=O)c2cc(C)c(Cl)cc2C)s1 [Example 79, 4-chloro-2,5-dimethyl-N-(2-(5-methylthiazol-2-yl)phenyl)benzenesulfonamide]
> 100 µM | Cc1cc(S(=O)(=O)Nc2ccc(-c3ncc(CN(C)C)s3)cc2)c(C)cc1Cl [Example 86, 4-chloro-N-(4-(5-((dimethylamino)methyl)thiazol-2-yl)phenyl)-2,5-dimethylbenzenesulfonamide]
> 100 µM | Cc1cnc(-c2cccc(S(=O)(=O)Nc3cc(C)c(Cl)cc3C)c2)s1 [Example 78, N-(4-chloro-2,5-dimethylphenyl)-3-(5-methylthiazol-2-yl)benzenesulfonamide]
3 µM | Cc1cc(S(=O)(=O)Nc2csc(-c3ccccc3)n2)c(C)cc1Cl [Example 81, 4-chloro-2,5-dimethyl-N-(2-phenylthiazol-4-yl)benzenesulfonamide]
> 100 µM | Cc1cc(S(=O)(=O)Nc2ccc3nc(-c4ccccc4)sc3c2)c(C)cc1Cl [Example 74, 4-chloro-2,5-dimethyl-N-(2-phenylbenzo[d]thiazol-6-yl)benzenesulfonamide]
16 µM | Cc1nc2ccc(NS(=O)(=O)c3cc(C)c(Cl)cc3C)cc2s1 [Example 73, 4-chloro-2,5-dimethyl-N-(2-methylbenzo[d]thiazol-6-yl)benzenesulfonamide]
> 100 µM | Cc1cnc(-c2ccc(NS(=O)(=O)c3cc(C)c(Cl)cc3C)cc2)s1 [Example 83, 4-chloro-2,5-dimethyl-N-(4-(5-methylthiazol-2-yl)phenyl)benzenesulfonamide]
8 µM | Cc1cc(S(=O)(=O)Nc2cccc(-c3ncc(CO)s3)c2)c(C)cc1Cl [Example 89, 4-chloro-N-(3-(5-(hydroxymethyl)thiazol-2-yl)phenyl)-2,5-dimethylbenzenesulfonamide]
> 100 µM | COC(=O)c1cnc(-c2cccc(NS(=O)(=O)c3cc(C)c(Cl)cc3C)c2)s1 [Example 88, methyl 2-(3-((4-chloro-2,5-dimethylphenyl)sulfonamido)phenyl) thiazole-5-carboxylate]
3 µM | Cc1cc(S(=O)(=O)Nc2cccc(-c3ncc(C4CC4)s3)c2)c(C)cc1Cl [Example 76, 4-chloro-N-(3-(5-cyclopropylthiazol-2-yl)phenyl)-2,5-dimethylbenzenesulfonamide]
